Laboratory results from patent US20140107109A1, “AMINO-DIHYDROTHIAZINE AND AMINO-DIOXIDO DIHYDROTHIAZINE COMPOUNDS AS BETA-SECRETASE ANTAGONISTS AND METHODS OF USE” (Amgen Inc., priority 2012, published 2014).

Assays:
[1] = biological target: T1, Cathepsin D (Cat D) (Homo sapiens, UniProt P07339); experiment: In vitro enzymatic Cathepsin D (Cat D) FRET assay; type: biochemical; conditions: read-out: CatD IC50
T1 construct: Recombinant Cat D was expressed in CHO cells; made in house; host or cells: CHO cells
T1 sequence (P07339 65-412, species assumed): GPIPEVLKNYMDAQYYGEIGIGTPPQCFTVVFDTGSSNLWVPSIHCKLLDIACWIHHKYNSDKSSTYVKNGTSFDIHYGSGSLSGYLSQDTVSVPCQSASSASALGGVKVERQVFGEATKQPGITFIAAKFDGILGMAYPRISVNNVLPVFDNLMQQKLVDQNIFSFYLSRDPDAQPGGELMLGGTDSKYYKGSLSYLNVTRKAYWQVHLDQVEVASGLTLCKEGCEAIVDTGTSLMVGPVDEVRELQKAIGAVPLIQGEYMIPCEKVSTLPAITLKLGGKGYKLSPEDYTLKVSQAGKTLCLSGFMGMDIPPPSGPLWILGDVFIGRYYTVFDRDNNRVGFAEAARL
Summary of the method: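 Recombinant Cat D expressed in CHO cells, used at 9 nM and pre-incubated one hour with serially diluted inhibitor in DMSO. Peptide substrate carries a fluorophore and quencher flanking the cleavage site; reaction stopped with Tris buffer raising pH to neutrality, then fluorescence read.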

[2] = biological target: Beta Secretase enzyme (BACE1) (Homo sapiens, UniProt P56817); experiment: In vitro enzymatic BACE FRET assay; type: biochemical; conditions: read-out: BACE1 FRET assay IC50
Sequence of Beta Secretase enzyme (BACE1) (P56817 46-501): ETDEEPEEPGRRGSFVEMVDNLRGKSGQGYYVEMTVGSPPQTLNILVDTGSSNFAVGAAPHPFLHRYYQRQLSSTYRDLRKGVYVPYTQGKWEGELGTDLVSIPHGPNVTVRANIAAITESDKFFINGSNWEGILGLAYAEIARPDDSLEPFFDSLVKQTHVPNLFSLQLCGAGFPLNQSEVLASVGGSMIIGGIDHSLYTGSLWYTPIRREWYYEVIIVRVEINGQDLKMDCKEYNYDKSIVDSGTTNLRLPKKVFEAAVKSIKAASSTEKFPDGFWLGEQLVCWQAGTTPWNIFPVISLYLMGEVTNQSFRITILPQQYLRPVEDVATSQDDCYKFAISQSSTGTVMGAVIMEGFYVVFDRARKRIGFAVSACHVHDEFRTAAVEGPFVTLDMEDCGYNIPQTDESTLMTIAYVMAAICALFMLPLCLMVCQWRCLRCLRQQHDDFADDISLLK
Summary of the method: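 BACE1 cleavage of a 50 nM fluorophore/quencher peptide FRET substrate ran for one hour in 0.05 M acetate pH 4.2, 10% DMSO, 100 uM genapol. Tris buffer raised pH to neutrality to stop the reaction before fluorescence was read (excitation 488 nm, […]).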

[3] = tested on: Aβ40 in conditioned medium of cells stably expressing Amyloid Precursor Protein (APP); experiment: In vitro BACE cell-based assay (HEK cell assay), Aβ40 sandwich ELISA; conditions: Homo sapiens, HEK293
Summary of the method: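 APP-stably expressing cells (40K/well, grown 24 h in DMEM/10% FBS) were treated 24 h with compounds in 10-point dose response starting at 100 μM or 10 μM, 0.1% DMSO final. Secreted Aβ40 was measured by sandwich ELISA (pAb40 capture, biotinylated 6E10 detection, europium time-resolved fluorescence); IC50 from percent inhibition.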

Row | IC50 [1] [µM] | IC50 [2] [µM] | IC50 [3] [µM] | SMILES
1 | 97.6 | 0.104 | 0.823 | COc1ccc2nc(C(=O)Nc3ccc(F)c([C@]4(CF)CS(=O)(=O)C(C)(C)C(N)=N4)c3)c(C)n2c1 [Example 392, N-(3-((3S)-5-amino-3-(fluoromethyl)-6,6-dimethyl-1,1-dioxido-3,6-dihydro-2H-1,4-thiazin-3-yl)-4-fluorophenyl)-6-methoxy-3-methylimidazo[1,2-a]pyridine-2-carboxamide]
2 | 103 | 0.0117 | 0.0605 | Cc1c(C(=O)Nc2ccc(F)c([C@]3(CF)CS(=O)(=O)C(C)(C)C(N)=N3)c2)nc2ccc(F)cn12 [Example 393, N-(3-((3S)-5-amino-3-(fluoromethyl)-6,6-dimethyl-1,1-dioxido-3,6-dihydro-2H-1,4-thiazin-3-yl)-4-fluorophenyl)-6-fluoro-3-methylimidazo[1,2-a]pyridine-2-carboxamide]
3 | > 14.8 | 0.0083 | 0.0235 | CCc1c(C(=O)Nc2ccc(F)c([C@]3(CF)CS(=O)(=O)C(C)(C)C(N)=N3)c2)nc2ccc(Cl)cn12 [Example 394, N-(3-((3S)-5-amino-3-(fluoromethyl)-6,6-dimethyl-1,1-dioxido-3,6-dihydro-2H-1,4-thiazin-3-yl)-4-fluorophenyl)-6-chloro-3-ethylimidazo[1,2-a]pyridine-2-carboxamide]
4 | 822 | 0.0377 | 0.125 | CC(C)c1c(C(=O)Nc2ccc(F)c([C@]3(CF)CS(=O)(=O)C(C)(C)C(N)=N3)c2)nc2ccc(Cl)cn12 [Example 395, N-(3-((3S)-5-amino-3-(fluoromethyl)-6,6-dimethyl-1,1-dioxido-3,6-dihydro-2H-1,4-thiazin-3-yl)-4-fluorophenyl)-6-chloro-3-(1-methylethyl)imidazo[1,2-a]pyridine-2-carboxamide]
5 | 187 | 0.00239 | 0.862 | Cc1cc(Cl)cnc1C(=O)Nc1ccc(F)c([C@]23C[C@H]2S(=O)(=O)C(C)(C)C(N)=N3)c1 [Example 396, N-(3-((1R,6R)-4-amino-3,3-dimethyl-2,2-dioxido-2-thia-5-azabicyclo[4.1.0]hept-4-en-6-yl)-4-fluorophenyl)-5-chloro-3-methyl-2-pyridinecarboxamide]
6 | 523 | 3.04 | 3.25 | Cc1nc(F)c([C@]2(C)CS(=O)(=O)C(C)(C)C(N)=N2)cc1NC(=O)c1ccc(Cl)cn1 [Example 397, N-(5-((3R)-5-amino-3,6,6-trimethyl-1,1-dioxido-3,6-dihydro-2H-1,4-thiazin-3-yl)-6-fluoro-2-methyl-3-pyridinyl)-5-chloro-2-pyridinecarboxamide]
7 | 183 | 0.002 | 0.0114 | CC1(C)C(N)=N[C@](C)(c2cc(NC(=O)c3ccc(Cl)cn3)cnc2F)CS1(=O)=O [Example 398, N-(5-((3R)-5-amino-3,6,6-trimethyl-1,1-dioxido-3,6-dihydro-2H-1,4-thiazin-3-yl)-6-fluoro-3-pyridinyl)-5-chloro-2-pyridinecarboxamide]
8 | 419 | 0.0031 | 0.0393 | CC1(C)C(N)=N[C@](C)(c2cc(NC(=O)c3ccc(F)cn3)cnc2F)CS1(=O)=O [Example 399, N-(5-((3R)-5-amino-3,6,6-trimethyl-1,1-dioxido-3,6-dihydro-2H-1,4-thiazin-3-yl)-6-fluoro-3-pyridinyl)-5-fluoro-2-pyridinecarboxamide]
9 | 156 | 0.0014 | 0.0089 | Cc1cc(OC(F)F)cnc1C(=O)Nc1cnc(F)c([C@]2(C)CS(=O)(=O)C(C)(C)C(N)=N2)c1 [Example 400, N-(5-((3R)-5-amino-3,6,6-trimethyl-1,1-dioxido-3,6-dihydro-2H-1,4-thiazin-3-yl)-6-fluoro-3-pyridinyl)-5-(difluoromethoxy)-3-methyl-2-pyridinecarboxamide]
10 | 757 | 0.00398 | 0.0179 | COc1ccc(C(=O)Nc2cnc(F)c([C@]3(C)CS(=O)(=O)C(C)(C)C(N)=N3)c2)nc1 [Example 401, N-(5-((3R)-5-amino-3,6,6-trimethyl-1,1-dioxido-3,6-dihydro-2H-1,4-thiazin-3-yl)-6-fluoro-3-pyridinyl)-5-methoxy-2-pyridinecarboxamide]
11 | 2780 | 0.0011 | 0.011 | CC1(C)C(N)=N[C@](C)(c2cc(NC(=O)c3cnc(OCC(F)(F)F)cn3)cnc2F)CS1(=O)=O [Example 402, N-(5-((3R)-5-amino-3,6,6-trimethyl-1,1-dioxido-3,6-dihydro-2H-1,4-thiazin-3-yl)-6-fluoro-3-pyridinyl)-5-(2,2,2-trifluoroethoxy)-2-pyrazinecarboxamide]
12 | 233 | 0.0019 | 0.0146 | CC1(C)C(N)=N[C@](C)(c2cc(NC(=O)c3ccc(C#N)cn3)cnc2F)CS1(=O)=O [Example 403, N-(5-((3R)-5-amino-3,6,6-trimethyl-1,1-dioxido-3,6-dihydro-2H-1,4-thiazin-3-yl)-6-fluoro-3-pyridinyl)-5-cyano-2-pyridinecarboxamide]
13 | 247 | 0.011 | 0.0119 | CC1(C)C(N)=N[C@](C)(c2cc(NC(=O)c3ccc(C(F)F)cn3)cnc2F)CS1(=O)=O [Example 404, N-(5-((3R)-5-amino-3,6,6-trimethyl-1,1-dioxido-3,6-dihydro-2H-1,4-thiazin-3-yl)-6-fluoro-3-pyridinyl)-5-(difluoromethyl)-2-pyridinecarboxamide]
14 | 576 | 0.0006 | 0.027 | CC1(C)C(N)=N[C@](CF)(c2cc(NC(=O)c3cnc(OCC(F)(F)F)cn3)ccc2F)CS1(=O)=O [Example 405, N-(3-((3S)-5-amino-3-(fluoromethyl)-6,6-dimethyl-1,1-dioxido-3,6-dihydro-2H-1,4-thiazin-3-yl)-4-fluorophenyl)-5-(2,2,2-trifluoroethoxy)-2-pyrazinecarboxamide]
15 | > 400 | 0.00054 | 0.0143 | CC1(C)C(N)=N[C@](CF)(c2cc(NC(=O)c3ccc(C#N)cn3)ccc2F)CS1(=O)=O [Example 406, N-(3-((3S)-5-amino-3-(fluoromethyl)-6,6-dimethyl-1,1-dioxido-3,6-dihydro-2H-1,4-thiazin-3-yl)-4-fluorophenyl)-5-cyano-2-pyridinecarboxamide]
16 | 440 | 0.00354 | 0.057 | C=C(C)c1cc(Cl)cnc1C(=O)Nc1ccc(F)c([C@]2(CF)CS(=O)(=O)C(C)(C)C(N)=N2)c1 [Example 407, N-(3-((3S)-5-amino-3-(fluoromethyl)-6,6-dimethyl-1,1-dioxido-3,6-dihydro-2H-1,4-thiazin-3-yl)-4-fluorophenyl)-5-chloro-3-(1-methylethenyl)-2-pyridinecarboxamide]
17 | 136 | 0.0004 | 0.0232 | Cc1cc(Cl)cnc1C(=O)Nc1ccc(F)c([C@]2(CF)CS(=O)(=O)C(C)(C)C(N)=N2)c1 [Example 408, N-(3-((3S)-5-amino-3-(fluoromethyl)-6,6-dimethyl-1,1-dioxido-3,6-dihydro-2H-1,4-thiazin-3-yl)-4-fluorophenyl)-5-chloro-3-methyl-2-pyridinecarboxamide]
18 | 363 | 0.0006 | 0.0037 | CC1(C)C(N)=N[C@](CF)(c2cc(NC(=O)c3ncc(Cl)cc3F)ccc2F)CS1(=O)=O [Example 409, N-(3-((3S)-5-amino-3-(fluoromethyl)-6,6-dimethyl-1,1-dioxido-3,6-dihydro-2H-1,4-thiazin-3-yl)-4-fluorophenyl)-5-chloro-3-fluoro-2-pyridinecarboxamide]
19 | 514 | 3.51 | > 15.6 | Cc1cc(OC(F)F)cnc1C(=O)Nc1ccc(F)c([C@@]2(CF)CS(=O)(=O)C3(CCC3)C(N)=N2)c1 [Example 411, N-(3-((7R)-9-amino-7-(fluoromethyl)-5,5-dioxido-5-thia-8-azaspiro[3.5]non-8-en-7-yl)-4-fluorophenyl)-5-(difluoromethoxy)-3-methyl-2-pyridinecarboxamide]
20 | 78.9 | 0.00063 | 0.0082 | Cc1cc(OC(F)F)cnc1C(=O)Nc1ccc(F)c([C@]2(CF)CS(=O)(=O)C3(CCC3)C(N)=N2)c1 [Example 412, N-(3-((7S)-9-amino-7-(fluoromethyl)-5,5-dioxido-5-thia-8-azaspiro[3.5]non-8-en-7-yl)-4-fluorophenyl)-5-(difluoromethoxy)-3-methyl-2-pyridinecarboxamide]
21 | 33.9 | 3.2 | 2.53 | CC1(C)C(N)=N[C@](C)(c2cc(Nc3ccc4c(c3)OC(F)(F)O4)cnc2F)CS1(=O)=O [Example 414, (5R)-5-(5-((2,2-difluoro-1,3-benzodioxol-5-yl)amino)-2-fluoro-3-pyridinyl)-2,2,5-trimethyl-5,6-dihydro-2H-1,4-thiazin-3-amine 1,1-dioxide]

Row | SMILES | IC50 [1] [µM] | IC50 [2] [µM] | IC50 [3] [µM]
22 | C[C@@]1(c2cc(N)cnc2F)CS(=O)(=O)C2(CCC2)C(N)=N1 [Example 415, (7R)-7-(5-amino-2-fluoro-3-pyridinyl)-7-methyl-5-thia-8-azaspiro[3.5]non-8-en-9-amine 5,5-dioxide] | 104 | 14.5 | > 15.6
